Laboratory results taken from the supplement of paper PMC10307832.

compound: O=C(/C=C/c1cccnc1)NCCCCC1CCN(C(=O)c2ccccc2)CC1 [Daporinad] + N=C(N)NC(=N)NCCc1ccccc1 [Phenformin] (partner 250 µM); experiment: relative viability (nuclei count vs DMSO), 5 days (fraction); higher = more cells survive; settings: first compound 0.0005 µM
How it was run: (§1)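 Each reported value is a median over duplicate plates. It expresses relative viability: treated-well nuclei count divided by vehicle-well nuclei count. Lung cancer cell lines in 1536-well plates were dosed by pin tool a day after seeding, alone with one drug or with a fixed anchor-drug dose plus five library-drug doses (not always all listed) in √10 steps, and nuclei were counted after 5 days.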

Cell Line | relative viability
HOP-62 | 0.493
HCC-44 | 0.255
SK-MES-1 | 0.657
LU99A | 0.833
BEN | 0.289
HARA | 0.412
SW 900 | 0.518
HCC-78 | 0.619
NCI-H322M | 0.793
LCLC-97TM1 | 0.414
NCI-H2009 | 0.447
A-427 | 0.298
NCI-H460 | 0.472
NCI-H727 | 0.529
NCI-H1734 | 0.437
NCI-H520 | 0.554
NCI-H2347 | 0.53
SW 1573 | 0.352
NCI-H1395 | 0.431
201T | 0.423
NCI-H1915 | 0.328
HCC-827 | 0.442
LXF-289 | 0.467
NCI-H23 | 0.726
NCI-H650 | 0.45
CAL-12T | 0.523
NCI-H1651 | 0.299
EPLC-272H | 0.265

same assay, conditions: first compound 0.001581 µM

Cell Line | relative viability
HOP-62 | 0.746
HCC-44 | 0.189
SK-MES-1 | 0.695
LU99A | 0.981
BEN | 0.237
HARA | 0.397
SW 900 | 0.674
NCI-H322M | 0.726
LCLC-97TM1 | 0.454
NCI-H2009 | 0.497
A-427 | 0.356
NCI-H460 | 0.575
NCI-H727 | 0.657
NCI-H1734 | 0.496
NCI-H520 | 0.286
NCI-H2347 | 0.319
SW 1573 | 0.383
NCI-H1395 | 0.421
201T | 0.456
NCI-H1915 | 0.398
HCC-827 | 0.478
LXF-289 | 0.555
NCI-H23 | 0.773
NCI-H650 | 0.422
CAL-12T | 0.613
NCI-H1651 | 0.381
EPLC-272H | 0.299

same assay, conditions: first compound 0.005 µM

Cell Line | relative viability
HOP-62 | 0.765
HCC-44 | 0.233
SK-MES-1 | 0.738
LU99A | 0.946
BEN | 0.261
HARA | 0.426
SW 900 | 0.798
HCC-78 | 0.839
NCI-H322M | 0.686
LCLC-97TM1 | 0.485
NCI-H2009 | 0.492
A-427 | 0.295
NCI-H460 | 0.533
NCI-H727 | 0.67
NCI-H1734 | 0.479
NCI-H520 | 0.187
NCI-H2347 | 0.447
SW 1573 | 0.232
NCI-H1395 | 0.471
201T | 0.499
NCI-H1915 | 0.362
HCC-827 | 0.421
LXF-289 | 0.559
NCI-H23 | 0.829
NCI-H650 | 0.522
CAL-12T | 0.296
NCI-H1651 | 0.433
EPLC-272H | 0.373

same assay, conditions: first compound 0.01581 µM

Cell Line | relative viability
HOP-62 | 0.526
HCC-44 | 0.182
SK-MES-1 | 0.545
LU99A | 0.93
BEN | 0.292
HARA | 0.114
SW 900 | 0.595
HCC-78 | 0.819
NCI-H322M | 0.436
LCLC-97TM1 | 0.458
NCI-H2009 | 0.337
A-427 | 0.191
NCI-H460 | 0.523
NCI-H727 | 0.522
NCI-H1734 | 0.299
NCI-H520 | 0.22
NCI-H2347 | 0.379
SW 1573 | 0.18
NCI-H1395 | 0.482
201T | 0.463
NCI-H1915 | 0.365
HCC-827 | 0.461
LXF-289 | 0.579
NCI-H23 | 0.399
NCI-H650 | 0.507
CAL-12T | 0.188
NCI-H1651 | 0.329
EPLC-272H | 0.368

compound: COc1cc(Nc2ncc(F)c(Nc3ccc4c(n3)NC(=O)C(C)(C)O4)n2)cc(OC)c1OC [R406] + CC(=O)c1c(C)c2cnc(Nc3ccc(N4CCNCC4)cn3)nc2n(C2CCCC2)c1=O [Palbociclib] (partner 0.5 µM); experiment: as above; settings: first compound 0.08 µM
How it was run: as §1

Cell Line | relative viability
HOP-62 | 0.426
HCC-44 | 0.945
SK-MES-1 | 0.313
LU99A | 0.343
BEN | 0.439
HARA | 0.334
SW 900 | 0.471
HCC-78 | 0.457
NCI-H322M | 0.463
LCLC-97TM1 | 0.34
NCI-H2009 | 0.232
A-427 | 0.516
NCI-H460 | 0.157
NCI-H727 | 0.621
NCI-H1734 | 0.359
NCI-H520 | 0.173
NCI-H2347 | 0.423
SW 1573 | 0.402
NCI-H1395 | 0.609
201T | 0.375
NCI-H1915 | 0.536
HCC-827 | 0.508
LXF-289 | 0.589
NCI-H23 | 0.496
NCI-H650 | 0.34
CAL-12T | 0.425
NCI-H1651 | 0.496
EPLC-272H | 0.329

same assay, conditions: first compound 0.253 µM

Cell Line | relative viability
HOP-62 | 0.533
HCC-44 | 0.982
SK-MES-1 | 0.297
LU99A | 0.392
BEN | 0.502
HARA | 0.198
SW 900 | 0.559
HCC-78 | 0.525
NCI-H322M | 0.452
LCLC-97TM1 | 0.218
NCI-H2009 | 0.212
A-427 | 0.596
NCI-H460 | 0.2
NCI-H727 | 0.702
NCI-H1734 | 0.372
NCI-H520 | 0.209
NCI-H2347 | 0.415
SW 1573 | 0.364
NCI-H1395 | 0.663
201T | 0.399
NCI-H1915 | 0.567
HCC-827 | 0.538
LXF-289 | 0.621
NCI-H23 | 0.539
NCI-H650 | 0.412
CAL-12T | 0.612
NCI-H1651 | 0.578
EPLC-272H | 0.337

same assay, conditions: first compound 0.8 µM

Cell Line | relative viability
HOP-62 | 0.397
HCC-44 | 0.858
SK-MES-1 | 0.307
LU99A | 0.422
BEN | 0.495
HARA | 0.223
SW 900 | 0.518
HCC-78 | 0.501
NCI-H322M | 0.468
LCLC-97TM1 | 0.273
NCI-H2009 | 0.265
A-427 | 0.575
NCI-H460 | 0.183
NCI-H727 | 0.752
NCI-H1734 | 0.376
NCI-H520 | 0.244
NCI-H2347 | 0.453
SW 1573 | 0.467
NCI-H1395 | 0.652
201T | 0.349
NCI-H1915 | 0.529
HCC-827 | 0.517
LXF-289 | 0.623
NCI-H23 | 0.629
NCI-H650 | 0.322
CAL-12T | 0.549
NCI-H1651 | 0.531
EPLC-272H | 0.326

same assay, conditions: first compound 2.53 µM

Cell Line | relative viability
HOP-62 | 0.456
HCC-44 | 1.02
SK-MES-1 | 0.259
LU99A | 0.273
BEN | 0.561
HARA | 0.264
SW 900 | 0.617
HCC-78 | 0.467
NCI-H322M | 0.456
LCLC-97TM1 | 0.185
NCI-H2009 | 0.192
A-427 | 0.477
NCI-H460 | 0.0283
NCI-H727 | 0.652
NCI-H1734 | 0.346
NCI-H520 | 0.164
NCI-H2347 | 0.446
SW 1573 | 0.32
NCI-H1395 | 0.47
201T | 0.394
NCI-H1915 | 0.488
HCC-827 | 0.422
LXF-289 | 0.596
NCI-H23 | 0.454
NCI-H650 | 0.289
CAL-12T | 0.142
NCI-H1651 | 0.511
EPLC-272H | 0.246

same assay, conditions: first compound 8 µM

Cell Line | relative viability
HOP-62 | 0.378
HCC-44 | 1.16
SK-MES-1 | 0.192
LU99A | 0.26
BEN | 0.422
HARA | 0.132
SW 900 | 0.096
HCC-78 | 0.427
NCI-H322M | 0.354
LCLC-97TM1 | 0.217
NCI-H2009 | 0.114
A-427 | 0.446
NCI-H460 | 0.0792
NCI-H727 | 0.609
NCI-H1734 | 0.243
NCI-H520 | 0.108
NCI-H2347 | 0.406
SW 1573 | 0.127
NCI-H1395 | 0.551
201T | 0.285
NCI-H1915 | 0.521
HCC-827 | 0.373
LXF-289 | 0.596
NCI-H23 | 0.155
NCI-H650 | 0.253
CAL-12T | 0.158
NCI-H1651 | 0.527
EPLC-272H | 0.303

compound: COc1cc(Nc2ncc(F)c(Nc3ccc4c(n3)NC(=O)C(C)(C)O4)n2)cc(OC)c1OC [R406] + COc1cccc2cc(-c3nc([C@H]4CC[C@H](C(=O)O)CC4)n4ncnc(N)c34)[nH]c12 [OSI-027] (partner 0.5 µM); experiment: as above; settings: first compound 0.08 µM
How it was run: as §1

Cell Line | relative viability
HOP-62 | 0.774
HCC-44 | 0.435
SK-MES-1 | 0.588
LU99A | 0.322
BEN | 0.291
HARA | 0.621
SW 900 | 0.649
HCC-78 | 0.335
NCI-H322M | 0.524
LCLC-97TM1 | 0.461
NCI-H2009 | 0.602
A-427 | 0.568
